According to patent US20190298694A1, “Use Of Carbamate Compound For Preventing Or Treating Fibromyalgia Or Functional Syndrome Associated With Fibromyalgia” (SK BIOPHARMACEUTICALS CO., LTD., priority 2016, published 2019):
Marks after values point to notes of the source that are not given here.

System: mechanical allodynia induced by injection of acidic saline into gastrocnemius muscle
Assay: Pain suppression in animal model of fibromyalgia: mechanical allodynia induced by repeated intramuscular acidic saline, paw withdrawal threshold by von Frey filaments (up-down method)
Assay type: in vivo, rats (Sprague-Dawley)
Details: for Area under the curve of the paw withdrawal threshold curve over time, compared with the vehicle group: ip
Description: Musculoskeletal pain is a major feature of fibromyalgia. A model that is linked to musculoskeletal pain in humans has been developed by Sluka K A, which model is characterized by mechanical sensitization induced by repeated intramuscular injections of acidic saline.
This experiment evaluated the effect of the test compound on persistent mechanical allodynia, which may well represent muscle pain or tenderness observed in patients with fibromyalgia. Repeated injections of acidic saline into the gastrocnemius muscle of rats lead to mechanical allodynia due to central sensitization (Sluka K A et. al., Unilateral intramuscular injections of acidic saline produce a bilateral, long-lasting hyperalgesia, Muscle Nerve. 2001).
Male rats (Sprague-Dawley, 150-200 g, 6 weeks old, Orient Bio Co., Ltd.) were purchased and subjected to acclimatization for more than 1 week in an animal chamber. The experimental animals were maintained under conditions of light-and-darkness cycle of 12 hours, a temperature of 22 to 25° C., a relative humidity of 40 to 60%, and free access to water and food.
Mechanical allodynia was assessed by measuring the paw withdrawal threshold of the rat right hind paw using Dixon's “up-down method” (Chaplan et. al., Quantitative assessment of tactile allodynia in the rat paw. J Neurosci Methods, 1994; Dixon W J, Efficient analysis of experimental observations, Annu Rev Pharmacol Toxicol. 1980). First, the rats were placed in an acrylic box (13×25×13 cm3) located on a wire mesh installed at a height of about 35 cm from the floor and stabilized for more than 20 minutes. […] von Frey filaments with various bending forces (0.2, 0.4, 0.6, 1.0, 2.0, 4.0, 6.0, 8.0, 15.0 g) were used. Starting with a filament of 2.0 g, bending force was applied perpendicular to the sole surface. In the case of no withdrawal (avoidance response), the next higher bending force filament was applied, or, in the case of withdrawal (avoidance response), the next lower bending force filament was applied. In order to obtain at least six (6) response results, the application of filaments was proceeded four (4) more times after showing the change in withdrawal.
The baseline withdrawal (avoidance response) threshold for mechanical stimulation on the right hind paw of rats was measured. 100 μl of preservative-free acidic saline (0.9% sodium chloride, pH 4.0) was intramuscularly injected into the right gastrocnemius muscle of the rats. After 5 days, the acidic saline was intramuscularly injected again into the same region by the same method. At 7 or 8 days after the second administration of acidic saline, induction of mechanical allodynia was confirmed by measuring withdrawal (avoidance response) thresholds to mechanical stimulation on the right hind paw, and rats with a mechanical withdrawal (avoidance response) threshold of less than 4.5 g were used for the evaluation of the test drug (Sluka K A et. al., Unilateral intramuscular injections of acidic saline produce a bilateral, long-lasting hyperalgesia, Muscle Nerve. 2001).
The test compound was prepared as a solution using 30% PEG 400 and 70% distilled water on a volume basis. Each solution was administered intraperitoneally to the rats at a volume of 3 ml per kg of rat. Withdrawal (avoidance response) thresholds to mechanical stimulation were measured at 30 minutes, 1 hour, 2 hours and 4 hours after drug administration.
[% MPE=(threshold over time after drug treatment−threshold at 0 hour)/(threshold of normal group−threshold at 0 hour)×100]
The vehicle or the test compound was administered intraperitoneally at doses of 5, 10 and 20 mg/kg, and withdrawal thresholds to mechanical stimulation were measured at 30 minutes, 1 hour, 2 hours and 4 hours.

Compound: NC(=O)O[C@@H](Cn1ncnn1)c1ccccc1Cl [Test compound]
- Withdrawal threshold of the right hind paw to mechanical stimulation (mean) (5 mg/kg ip group, 0 h (pre-dose, after acidic saline)): 2.97 g
- Withdrawal threshold of the right hind paw to mechanical stimulation (mean) (5 mg/kg ip group, baseline, prior to first injection of acidic saline (pre-dose)): 13.69 g
- Effect (%) (% MPE, percent of maximum possible effect) (5 mg/kg ip, 30 min): 10.8%
- Withdrawal threshold of the right hind paw to mechanical stimulation (mean) (5 mg/kg ip, 30 min after administration): 4.02 g
- Effect (%) (% MPE, percent of maximum possible effect) (5 mg/kg ip, 1 h): 35.6%
- Withdrawal threshold of the right hind paw to mechanical stimulation (mean) (5 mg/kg ip, 1 h after administration): 6.41^d g
- Effect (%) (% MPE, percent of maximum possible effect) (5 mg/kg ip, 2 h): 38.3%
- Withdrawal threshold of the right hind paw to mechanical stimulation (mean) (5 mg/kg ip, 2 h after administration): 6.67^e g
- Effect (%) (% MPE, percent of maximum possible effect) (5 mg/kg ip, 4 h): 10.7%
- Withdrawal threshold of the right hind paw to mechanical stimulation (mean) (5 mg/kg ip, 4 h after administration): 4.01 g
- Withdrawal threshold of the right hind paw to mechanical stimulation (mean) (10 mg/kg ip group, 0 h (pre-dose, after acidic saline)): 3.20 g
- Withdrawal threshold of the right hind paw to mechanical stimulation (mean) (10 mg/kg ip group, baseline, prior to first injection of acidic saline (pre-dose)): 14.29 g
- Effect (%) (% MPE, percent of maximum possible effect) (10 mg/kg ip, 30 min): 11.4%
- Withdrawal threshold of the right hind paw to mechanical stimulation (mean) (10 mg/kg ip, 30 min after administration): 4.27 g
- Effect (%) (% MPE, percent of maximum possible effect) (10 mg/kg ip, 1 h): 47.5%
- Withdrawal threshold of the right hind paw to mechanical stimulation (mean) (10 mg/kg ip, 1 h after administration): 7.68^e g
- Effect (%) (% MPE, percent of maximum possible effect) (10 mg/kg ip, 2 h): 43.5%
- Withdrawal threshold of the right hind paw to mechanical stimulation (mean) (10 mg/kg ip, 2 h after administration): 7.30^e g
- Effect (%) (% MPE, percent of maximum possible effect) (10 mg/kg ip, 4 h): 11.3%
- Withdrawal threshold of the right hind paw to mechanical stimulation (mean) (10 mg/kg ip, 4 h after administration): 4.26 g
- Area under the curve of the paw withdrawal threshold curve over time, compared with the vehicle group (10 mg/kg): statistically significant effects
- Withdrawal threshold of the right hind paw to mechanical stimulation (mean) (20 mg/kg ip group, 0 h (pre-dose, after acidic saline)): 2.95 g
- Withdrawal threshold of the right hind paw to mechanical stimulation (mean) (20 mg/kg ip group, baseline, prior to first injection of acidic saline (pre-dose)): 13.83 g
- Effect (%) (% MPE, percent of maximum possible effect) (20 mg/kg ip, 30 min): 44.6%
- Withdrawal threshold of the right hind paw to mechanical stimulation (mean) (20 mg/kg ip, 30 min after administration): 7.28^d g
- Effect (%) (% MPE, percent of maximum possible effect) (20 mg/kg ip, 1 h): 73.2%
- Withdrawal threshold of the right hind paw to mechanical stimulation (mean) (20 mg/kg ip, 1 h after administration): 10.04^e g
- Effect (%) (% MPE, percent of maximum possible effect) (20 mg/kg ip, 2 h): 82.2%
- Withdrawal threshold of the right hind paw to mechanical stimulation (mean) (20 mg/kg ip, 2 h after administration): 10.92^e g
- Effect (%) (% MPE, percent of maximum possible effect) (20 mg/kg ip, 4 h): 16.2%
- Withdrawal threshold of the right hind paw to mechanical stimulation (mean) (20 mg/kg ip, 4 h after administration): 4.52 g
- Area under the curve of the paw withdrawal threshold curve over time, compared with the vehicle group (20 mg/kg): statistically significant effects
- Area under the curve of the paw withdrawal threshold curve over time (5, 10 and 20 mg/kg ip, dose dependence): dose-dependent effect
- Muscle mechanical hyperalgesia in the chronic myalgia model (dose-dependent manner): significantly reduces
- Mechanical allodynia induced by repeated injections of acidic saline (intraperitoneally at doses of 5, 10 and 20 mg/kg): significantly inhibited
- Effect in the fibromyalgia disease model (overall conclusion): significant effect
